Source: PubChem BioAssay AID248 (DTP/NCI, 2004)
Several values for one entry are separate records, joined by “and”; a condition that tells them apart may be missing. Equal values may be shown once. Toxic doses and inconclusive results are not listed. No stated cut-off is given here; in the data, active means T/C of 150% or more; inactive means T/C below 125%.

Test system: L1210 leukemia ip in BDF1 mice, survival T/C
Test: NCI In Vivo Anticancer Drug Screen. Data for tumor model L1210 Leukemia (intraperitoneal) in B6D2F1 (BDF1) mice
Settings: endpoint: mean survival time, higher = longer survival
How it was run: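 Tumor was transplanted into mice, which were then dosed with test compound or vehicle alone. Survival was recorded for each group, and the treated figure was expressed relative to the control figure.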

[1] = dose: 100.0 mg/kg/injection, schedule: Q01DX001 (ip), vehicle: saline
[2] = dose: 100.0 mg/kg/injection, schedule: Q04DX002 (ip), vehicle: Klucel (hydroxypropylcellulose) (HPC)
[3] = dose: 200.0 mg/kg/injection, schedule: Q04DX002 (ip), vehicle: Klucel (hydroxypropylcellulose) (HPC)
[4] = dose: 400.0 mg/kg/injection, schedule: Q04DX002 (ip), vehicle: Klucel (hydroxypropylcellulose) (HPC)
[5] = dose: 100.0 mg/kg/injection, schedule: Q01DX009 (ip), vehicle: saline
[6] = dose: 100.0 mg/kg/injection, schedule: Q04DX002 (ip), vehicle: saline
[7] = dose: 200.0 mg/kg/injection, schedule: Q01DX009 (ip), vehicle: saline
[8] = dose: 200.0 mg/kg/injection, schedule: Q04DX002 (ip), vehicle: saline
[9] = dose: 400.0 mg/kg/injection, schedule: Q01DX009 (ip), vehicle: saline
[10] = dose: 400.0 mg/kg/injection, schedule: Q04DX002 (ip), vehicle: saline
[11] = dose: 100.0 mg/kg/injection, schedule: Q04DX003 (ip), vehicle: Klucel (hydroxypropylcellulose) (HPC)
[12] = dose: 200.0 mg/kg/injection, schedule: Q04DX003 (ip), vehicle: Klucel (hydroxypropylcellulose) (HPC)
[13] = dose: 100.0 mg/kg/injection, schedule: Q01DX009 (ip), vehicle: Klucel (hydroxypropylcellulose) (HPC)
[14] = dose: 100.0 mg/kg/injection, schedule: Q04DX003 (ip), vehicle: saline with Tween-80

Measured: T/C

O=C1c2c(ccc3ccccc23)CCC1CN1CCCCC1 (stereo not given)
inactive: [1] 102 % of control | dose: 200.0 mg/kg/injection, schedule: Q01DX001 (ip), vehicle: saline 108 % of control | dose: 400.0 mg/kg/injection, schedule: Q01DX001 (ip), vehicle: saline 112 % of control

O=C(OCc1ccccc1CN1CCOCC1)c1ccc(Br)cc1
inactive: [2] 100 % of control | [3] 92 % of control | [4] 103 % of control

O=C1OC(c2ccc([N+](=O)[O-])cc2)=N/C1=C\c1ccc(Cl)cc1
inactive: [5] 94 % of control | [6] 89 % of control | [7] 91 % of control | [8] 92 % of control | [9] 91 % of control | [10] 92 % of control

Cc1ccc(S(=O)(=O)CCCl)cc1
inactive: [11] 96 % of control | [12] 100 % of control

NC(=O)N/N=C/C(=O)O
inactive: [2] 96 % of control | [3] 104 % of control | [4] 104 % of control

O=S(Cc1ccccc1)c1ccccc1 (stereo not given)
inactive: dose: 75.0 mg/kg/injection, schedule: Q04DX002 (ip), vehicle: Klucel (hydroxypropylcellulose) (HPC) 115 % of control | dose: 150.0 mg/kg/injection, schedule: Q04DX002 (ip), vehicle: Klucel (hydroxypropylcellulose) (HPC) 100 % of control | dose: 300.0 mg/kg/injection, schedule: Q04DX002 (ip), vehicle: Klucel (hydroxypropylcellulose) (HPC) 93 % of control

N#CC(Nc1ccccc1)c1ccccc1 (stereo not given)
inactive: [13] 91 % of control | [11] 97 % of control | dose: 200.0 mg/kg/injection, schedule: Q01DX009 (ip), vehicle: Klucel (hydroxypropylcellulose) (HPC) 96 % of control | [12] 95 % of control | dose: 400.0 mg/kg/injection, schedule: Q04DX003 (ip), vehicle: Klucel (hydroxypropylcellulose) (HPC) 104 % of control

[F][Sn]([c]1ccc(Cl)cc1)([c]1ccc(Cl)cc1)[c]1ccc(Cl)cc1
inactive: dose: 0.18 mg/kg/injection, schedule: Q04DX003 (ip), vehicle: other 97 % of control | dose: 0.37 mg/kg/injection, schedule: Q04DX003 (ip), vehicle: other 101 % of control | dose: 0.75 mg/kg/injection, schedule: Q04DX003 (ip), vehicle: other 93 % of control | dose: 1.5 mg/kg/injection, schedule: Q04DX003 (ip), vehicle: other 100 % of control

O=C(Nc1ccccc1)NC1CCCCC1
inactive: dose: 100.0 mg/kg/injection, schedule: Q01DX001 (ip), vehicle: Klucel (hydroxypropylcellulose) (HPC) 100 % of control | dose: 200.0 mg/kg/injection, schedule: Q01DX001 (ip), vehicle: Klucel (hydroxypropylcellulose) (HPC) 95 % of control | dose: 400.0 mg/kg/injection, schedule: Q01DX001 (ip), vehicle: Klucel (hydroxypropylcellulose) (HPC) 101 % of control

c1ccc2c(C(CCN3CCCCC3)CNC3=NCCN3)cccc2c1 (stereo not given)
inactive: dose: 5.0 mg/kg/injection, schedule: Q04DX003 (ip), vehicle: saline with Tween-80 96 % of control | dose: 10.0 mg/kg/injection, schedule: Q04DX003 (ip), vehicle: saline with Tween-80 105 % of control | dose: 20.0 mg/kg/injection, schedule: Q04DX003 (ip), vehicle: saline with Tween-80 98 % of control

O=C(/C=C/C=[N+](/[O-])O)c1cncc(F)c1
inactive: [6] 93 % of control | [8] 101 % of control | [10] 93 % of control

OCC1OC(c2[nH]nc3c([Se])ncnc23)C(O)C1O (stereo not given)
inactive: dose: 1.56 mg/kg/injection, schedule: Q01DX005 (ip), vehicle: saline 95 % of control | dose: 1.56 mg/kg/injection, schedule: Q01DX009 (ip), vehicle: saline 95 % of control | dose: 3.12 mg/kg/injection, schedule: Q01DX005 (ip), vehicle: saline 97 % of control | dose: 3.12 mg/kg/injection, schedule: Q01DX009 (ip), vehicle: saline 100 % of control | dose: 6.25 mg/kg/injection, schedule: Q01DX005 (ip), vehicle: saline 99 % of control | dose: 6.25 mg/kg/injection, schedule: Q01DX009 (ip), vehicle: saline 97 % of control | dose: 12.5 mg/kg/injection, schedule: Q01DX009 (ip), vehicle: saline 90 % of control

O=[N+]([O-])c1cccc(N=Nc2ccc(O)cc2)c1
inactive: [13] 102 % of control | dose: 130.0 mg/kg/injection, schedule: Q01DX009 (ip), vehicle: Klucel (hydroxypropylcellulose) (HPC) 106 % of control

CN(C)CCCN=Cc1cc([N+](=O)[O-])ccc1O.CN(C)CCCN=Cc1cc([N+](=O)[O-])ccc1O.[Ni+2]
inactive: [14] 91 % of control

O=C(O)CNS(=O)(=O)c1ccccc1
inactive: dose: 100.0 mg/kg/injection, schedule: Q01DX009 (ip), vehicle: carboxymethylcellulose (CMC) 97 % of control | dose: 200.0 mg/kg/injection, schedule: Q01DX009 (ip), vehicle: carboxymethylcellulose (CMC) 101 % of control | dose: 400.0 mg/kg/injection, schedule: Q01DX009 (ip), vehicle: carboxymethylcellulose (CMC) 89 % of control

CCCCNC(C)(C)CCl
inactive: dose: 25.0 mg/kg/injection, schedule: Q01DX009 (ip), vehicle: saline 103 % of control | dose: 25.0 mg/kg/injection, schedule: Q04DX003 (ip), vehicle: water 110 % of control | dose: 50.0 mg/kg/injection, schedule: Q01DX009 (ip), vehicle: saline 102 % of control | dose: 50.0 mg/kg/injection, schedule: Q01DX009 (ip), vehicle: water 91 % of control | dose: 50.0 mg/kg/injection, schedule: Q04DX003 (ip), vehicle: water 116 % of control | [1] 104 % of control | dose: 100.0 mg/kg/injection, schedule: Q04DX003 (ip), vehicle: water 98 % of control and 102 % of control

OC(c1ccccc1)(c1ccccc1)C1CCCCC1C(O)(c1ccccc1)c1ccccc1 (stereo not given)
inactive: [5] 93 % of control | [7] 93 % of control | [9] 89 % of control

CCCN=C(N)c1ccc(N=C(N)c2ccc(N=C(N)c3ccc(C(N)=NCCC)cc3)cc2)cc1
inactive: dose: 30.0 mg/kg/injection, schedule: Q01DX Z (ip), vehicle: carboxymethylcellulose (CMC) 88 % of control | dose: 50.0 mg/kg/injection, schedule: Q01DX Z (oral), vehicle: carboxymethylcellulose (CMC) 110 % of control | dose: 100.0 mg/kg/injection, schedule: Q01DX Z (oral), vehicle: carboxymethylcellulose (CMC) 109 % of control | dose: 200.0 mg/kg/injection, schedule: Q01DX Z (oral), vehicle: carboxymethylcellulose (CMC) 106 % of control | dose: 400.0 mg/kg/injection, schedule: Q01DX Z (oral), vehicle: carboxymethylcellulose (CMC) 109 % of control
active: dose: 15.0 mg/kg/injection, schedule: Q01DX Z (ip), vehicle: carboxymethylcellulose (CMC) 154 % of control

CC12CCC3c4ccc(O)cc4CCC3C1CCC2O (stereo not given)
inactive: dose: 50.0 mg/kg/injection, schedule: Q01DX001 (sc), vehicle: steriod suspending solution 105 % of control and 111 % of control | dose: 100.0 mg/kg/injection, schedule: Q01DX001 (sc), vehicle: steriod suspending solution 98 % of control and 115 % of control | dose: 200.0 mg/kg/injection, schedule: Q01DX001 (sc), vehicle: steriod suspending solution 98 % of control and 103 % of control | dose: 400.0 mg/kg/injection, schedule: Q01DX001 (sc), vehicle: steriod suspending solution 101 % of control and 109 % of control

Nc1nc2ncc(CN(N=O)c3ccc(C(=O)NC(CCC(=O)O)C(=O)O)cc3)nc2c(=O)[nH]1 (stereo not given)
inactive: dose: 0.62 mg/kg/injection, schedule: Q01DX009 (ip), vehicle: water 98 % of control | dose: 1.25 mg/kg/injection, schedule: Q01DX009 (ip), vehicle: water 100 % of control | dose: 2.5 mg/kg/injection, schedule: Q01DX009 (ip), vehicle: water 98 % of control | dose: 5.0 mg/kg/injection, schedule: Q01DX009 (ip), vehicle: water 96 % of control | dose: 10.0 mg/kg/injection, schedule: Q01DX009 (ip), vehicle: water 98 % of control

C/C=C1/C[N+]2(C)CCC34C(=C(C(=O)OC)C1CC32)Nc1ccc(O)cc14 (stereo not given)
inactive: dose: 6.25 mg/kg/injection, schedule: Q01DX001 (ip), vehicle: saline with Tween-80 97 % of control | dose: 12.5 mg/kg/injection, schedule: Q01DX001 (ip), vehicle: saline with Tween-80 102 % of control | dose: 25.0 mg/kg/injection, schedule: Q01DX001 (ip), vehicle: saline with Tween-80 96 % of control

Cc1cc(S(N)(=O)=O)ccc1Cl
inactive: [14] 93 % of control | dose: 200.0 mg/kg/injection, schedule: Q04DX003 (ip), vehicle: saline with Tween-80 93 % of control | dose: 400.0 mg/kg/injection, schedule: Q04DX003 (ip), vehicle: saline with Tween-80 104 % of control

CCN(CC)C(=S)SC(C)C(=O)OC (stereo not given)
inactive: [2] 96 % of control | [3] 107 % of control | [4] 103 % of control
